Measured values taken from patent US12304905B2, “Pharmaceutical salts of benzothiazol compounds, polymorphs and methods for preparation thereof” (priority 2019, dated 2025).
Converted amounts (≈) assume the structure as drawn. Like-named read-outs stand apart in the source and are kept apart here.

What was measured:
Format in all cases: physicochemical
[1] = Solubility test of free base in bio-relevant media and buffers; settings: for solubility at 24 h: thermodynamic from solid
Method: About 5 mg starting free base were weighed in 2 mL vials. Then 1.0 mL biorelevant media (SGF, FaSSIF and FeSSIF) and buffers were added into the vials. All the vials were placed on the thermo-mixer and kept at 37° C. (700 r/m in). After shaking at 37° C. for 24 hrs, mother liquids obtained by filtration were analyzed by HPLC directly or after being diluted by ACN/water for 20-40 times.

[2] = Solubility test of free base in solvents
Method: About 4 mg of (1S,2S)-2-fluoro-N-(6-(4-methylpyridin-3-yl)benzo[d]thiazol-2-yl)cyclopropane-1-carboxamide was weighed into a 2.0 mL glass vial and then selected solvents was added in the vial stepwise until all the solid was dissolved. The experiment was conducted by manual dilution combined with visual observation at 25° C. and 50° C. The total volume of solvent added was recorded.

[3] = Dynamic Vapor Sorption (DVS) of free base
Method: Samples (˜10 mg) were transferred into a DVS instrument and recorded the weight change with respect to the atmospheric humidity at 25° C. using the following parameters: • Equilibrium: dm/dt: 0.01%/min. (for min: 10 min and max: 180 min). • Drying: 0% RH for 120 min • RH (%) measurement step: 10% • RH (%) measurement step scope: 0-90-0% (6) Proton Nuclear Magnetic Resonance (1H NMR) • 400 MHz Bruker with DMSO-d6 or MeOH-d4 solvents • Temperature: 27° C.
(1S,2S)-2-fluoro-N-(6-(4-methylpyridin-3-yl)benzo[d]thiazol-2-yl)cyclopropane-1-carboxamide free base appears as light yellow powder. Subsequently, the physical and thermal properties of free base were characterized. […] This free base form was named as Pattern A.

## Cc1ccncc1-c1ccc2nc(NC(=O)[C@@H]3C[C@@H]3F)sc2c1 [free base, (1S,2S)-2-fluoro-N-(6-(4-methylpyridin-3-yl)benzo[d]thiazol-2-yl)cyclopropane-1-carboxamide]
[1]; FaSSIF, initial pH 6.52
  Final pH value: 6.50
[1]; FeSSIF, initial pH 5.07
  Final pH value: 5.09
[1]; SGF, initial pH 1.92
  Final pH value: 2.28
[1]; aqueous buffer, pH 2.0 buffer, initial pH 1.98, 37° C., 24 hrs
  solubility at 24 h: 2060 µg/mL (≈ 6.29 mM)
[1]; aqueous buffer, pH 4.0 buffer, initial pH 4.01, 37° C., 24 hrs
  solubility at 24 h: 31 µg/mL (≈ 0.0947 mM)
[1]; aqueous buffer, pH 6.0 buffer, initial pH 5.90, 37° C., 24 hrs
  solubility at 24 h: 2 µg/mL (≈ 0.00611 mM)
[1]; pH 2.0 buffer, initial pH 1.98
  Final pH value: 2.25
[1]; pH 4.0 buffer, initial pH 4.01
  Final pH value: 4.05
[1]; pH 6.0 buffer, initial pH 5.90
  Final pH value: 5.88
[1]; pH 8.0 buffer, initial pH 8.04
  Final pH value: 8.08
[1]; simulated gastric fluid, SGF, initial pH 1.92, 37° C., 24 hrs
  solubility at 24 h: 2490 µg/mL (≈ 7.61 mM)
[1]; simulated gastric fluid, in SGF and pH 2.0 buffer, 37° C., called medium solubility
  solubility at 24 h: 2000 to 2500 µg/mL (≈ 6.11 to 7.64 mM)
[1]; FeSSIF, initial pH 5.07, 37° C., 24 hrs
  solubility at 24 h: 45 µg/mL (≈ 0.137 mM)
[1]; water
  Final pH value: 8.84
[2]; aqueous with cosolvent or surfactant or cyclodextrin, thermodynamic from solid, Acetone/H2O (1/1, v/v), 25° C., read-out: Solubility
  solubility: < 5000 µg/mL
[2]; aqueous with cosolvent or surfactant or cyclodextrin, thermodynamic from solid, Acetone/H2O (1/1, v/v), 50° C., read-out: Solubility
  solubility: < 5000 µg/mL
[2]; aqueous with cosolvent or surfactant or cyclodextrin, thermodynamic from solid, EtOH/H2O (1/1, v/v), 25° C., read-out: Solubility
  solubility: < 5000 µg/mL
[2]; aqueous with cosolvent or surfactant or cyclodextrin, thermodynamic from solid, EtOH/H2O (1/1, v/v), 50° C., read-out: Solubility
  solubility: < 5000 µg/mL
[2]; in DMF and DMSO
  solubility: relatively high solubility
[2]; in mostly common use solvents
  solubility: relatively low solubility
[2]; organic solvent or mixture, thermodynamic from solid, 1,4-dioxane, 25° C., read-out: Solubility
  solubility: < 5000 µg/mL
[2]; organic solvent or mixture, thermodynamic from solid, 1,4-dioxane, 50° C., read-out: Solubility
  solubility: 7000 to 10000 µg/mL (≈ 21.4 to 30.5 mM)
[2]; organic solvent or mixture, thermodynamic from solid, 2-Propanol (IPA), 25° C., read-out: Solubility
  solubility: < 5000 µg/mL
[2]; organic solvent or mixture, thermodynamic from solid, 2-Propanol (IPA), 50° C., read-out: Solubility
  solubility: < 5000 µg/mL
[2]; organic solvent or mixture, thermodynamic from solid, Acetone, 25° C., read-out: Solubility
  solubility: < 5000 µg/mL
[2]; organic solvent or mixture, thermodynamic from solid, Acetone, 50° C., read-out: Solubility
  solubility: < 5000 µg/mL
[2]; organic solvent or mixture, thermodynamic from solid, Acetonitrile (ACN), 25° C., read-out: Solubility
  solubility: < 5000 µg/mL
[2]; organic solvent or mixture, thermodynamic from solid, Acetonitrile (ACN), 50° C., read-out: Solubility
  solubility: < 5000 µg/mL
[2]; organic solvent or mixture, thermodynamic from solid, Dichloromethane (DCM), 25° C., read-out: Solubility
  solubility: < 5000 µg/mL
[2]; organic solvent or mixture, thermodynamic from solid, Dimethylsulfoxide (DMSO), 25° C., read-out: Solubility
  solubility: > 100000 µg/mL
[2]; organic solvent or mixture, thermodynamic from solid, Ethyl acetate (EtOAc), 25° C., read-out: Solubility
  solubility: < 5000 µg/mL
[2]; organic solvent or mixture, thermodynamic from solid, Ethyl acetate (EtOAc), 50° C., read-out: Solubility
  solubility: < 5000 µg/mL
[2]; organic solvent or mixture, thermodynamic from solid, Ethyl alcohol (EtOH), 25° C., read-out: Solubility
  solubility: < 5000 µg/mL
[2]; organic solvent or mixture, thermodynamic from solid, Ethyl alcohol (EtOH), 50° C., read-out: Solubility
  solubility: < 5000 µg/mL
[2]; organic solvent or mixture, thermodynamic from solid, Heptane, 25° C., read-out: Solubility
  solubility: < 5000 µg/mL
[2]; organic solvent or mixture, thermodynamic from solid, Heptane, 50° C., read-out: Solubility
  solubility: < 5000 µg/mL
[2]; organic solvent or mixture, thermodynamic from solid, Isopropyl acetate (IPAc), 25° C., read-out: Solubility
  solubility: < 5000 µg/mL
[2]; organic solvent or mixture, thermodynamic from solid, Isopropyl acetate (IPAc), 50° C., read-out: Solubility
  solubility: < 5000 µg/mL
[2]; organic solvent or mixture, thermodynamic from solid, Methanol (MeOH), 25° C., read-out: Solubility
  solubility: < 5000 µg/mL
[2]; organic solvent or mixture, thermodynamic from solid, Methanol (MeOH), 50° C., read-out: Solubility
  solubility: 5000 to 7000 µg/mL (≈ 15.3 to 21.4 mM)
[2]; organic solvent or mixture, thermodynamic from solid, Methyl ethyl ketone (MEK), 25° C., read-out: Solubility
  solubility: < 5000 µg/mL
[2]; organic solvent or mixture, thermodynamic from solid, Methyl ethyl ketone (MEK), 50° C., read-out: Solubility
  solubility: < 5000 µg/mL
[2]; organic solvent or mixture, thermodynamic from solid, Methyl isobutyl ketone (MIBK), 25° C., read-out: Solubility
  solubility: < 5000 µg/mL
[2]; organic solvent or mixture, thermodynamic from solid, Methyl isobutyl ketone (MIBK), 50° C., read-out: Solubility
  solubility: < 5000 µg/mL
[2]; organic solvent or mixture, thermodynamic from solid, Methyl tert-butyl ether (MtBE), 25° C., read-out: Solubility
  solubility: < 5000 µg/mL
[2]; organic solvent or mixture, thermodynamic from solid, Methyl tert-butyl ether (MtBE), 50° C., read-out: Solubility
  solubility: < 5000 µg/mL
[2]; organic solvent or mixture, thermodynamic from solid, N,N-Dimethylformamide (DMF), 25° C., read-out: Solubility
  solubility: 67000 to 100000 µg/mL (≈ 205 to 305 mM)
[2]; organic solvent or mixture, thermodynamic from solid, N,N-Dimethylformamide (DMF), 50° C., read-out: Solubility
  solubility: > 100000 µg/mL
[2]; organic solvent or mixture, thermodynamic from solid, Tetrahydrofuran (THF), 25° C., read-out: Solubility
  solubility: 8000 to 10000 µg/mL (≈ 24.4 to 30.5 mM)
[2]; organic solvent or mixture, thermodynamic from solid, Tetrahydrofuran (THF), 50° C., read-out: Solubility
  solubility: 9000 to 13000 µg/mL (≈ 27.5 to 39.7 mM)
[2]; organic solvent or mixture, thermodynamic from solid, Toluene, 25° C., read-out: Solubility
  solubility: < 5000 µg/mL
[2]; organic solvent or mixture, thermodynamic from solid, Toluene, 50° C., read-out: Solubility
  solubility: < 5000 µg/mL
[2]; thermodynamic from solid, Water, 25° C., read-out: Solubility
  solubility: < 5000 µg/mL
[2]; thermodynamic from solid, Water, 50° C., read-out: Solubility
  solubility: < 5000 µg/mL
[3]
  Hygroscopicity (DVS): Hygroscopic
[3]; 25° C., 80% RH
  DVS (ΔW %, 80% RH): 2.30%
[3]; XRPD, listed after DVS
  Form change (Yes/No, XRPD): (No)
